Read-outs that look alike come from different tables or passages of the source. Starred links: 1 amine or outer side, 2 acyl side, 3 side chain; linkers in the order of their positions; H or OH if unused. Positions of bridges follow the written chain, without caps; N, C: chain ends. Non-standard residues stand in square brackets, D forms with d. Residues, ends and D or L forms follow the SMILES beside them. ξ: configuration not given here. *: point of attachment. Phe(4-CF3) = N[C@@H](Cc1ccc(C(F)(F)F)cc1)C(=O)O; NMePhe(3-Cl) = CN[C@@H](Cc1cccc(Cl)c1)C(=O)O; NEtPhe = CCN[C@@H](Cc1ccccc1)C(=O)O; NMeF = CN[C@@H](Cc1ccccc1)C(=O)O; NMeGABA = CN(CCCC(=O)[*:2])[*:1]; NMeI = CC[C@H](C)[C@H](NC)C(=O)O; NMeβAla = CN(CCC(=O)[*:2])[*:1]; Aoc(2) = CCCCCC[C@H](N)C(=O)O; NMeL = CN[C@@H](CC(C)C)C(=O)O; ξNMeF = CNC(Cc1ccccc1)C(=O)O; NMeV = CN[C@H](C(=O)O)C(C)C; NMeS = CN[C@@H](CO)C(=O)O; NMeA = CN[C@@H](C)C(=O)O; Piperidide = C1CCN(*)CC1; dNMeA = CN[C@H](C)C(=O)O; β3hA = C[C@H](N)CC(=O)O; Sar = CNCC(=O)O; tBu = CC(C)(C)*
How the values were obtained:
[1] = PAMPA (parallel artificial membrane permeability assay); assay type: in vitro ADME; conditions: PAMPA
Outline: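 Artificial membrane was 10% (w/v) egg lecithin plus 0.5% (w/v) cholesterol in dodecane on a PVDF filter. A 10 mM DMSO stock was added at 0.5% (v/v) to donor buffer (50 mM MOPSO, pH 6.5, 5.0% glycocholic acid). After 18 h at 37 °C, LC/MS or LC/UV gave donor and acceptor levels for Pe.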

[2] = Metabolic stability in human hepatic microsome; assay type: in vitro ADME; conditions: microsomes
[3] = membrane permeation rate (Pe), 50 mM MOPSO buffer pH 6.5 with 5.0% glycocholic acid, 37° C., 18 hours, read-out: iPAMPA Pe
[4] = pH 7.4, human hepatic microsome, NADPH(+), read-out: CL NADPH(+)

SMILES	Papp at 18 hours, 50 µM ([1]; pH 6.5) [×10⁻⁶ cm/s]	microsomal CLint at 1 uM ([2]; human, pH 7.4, CL NADPH(+)) [µL/min/mg]	Papp at 18 hours, 50 µM [1, 3] [×10⁻⁶ cm/s]	microsomal CLint at 1 uM [2, 4] [µL/min/mg]
CC[C@H](C)[C@@H]1NC(=O)[C@H](Cc2ccccc2)N(C)C(=O)[C@H](CC(C)C)N(C)C(=O)[C@H](Cc2ccccc2)N(C)C(=O)[C@H]([C@@H](C)O)NC(=O)CCN(C)C(=O)C[C@@H](C(=O)N(C)[C@@H](Cc2ccccc2)C(=O)N[C@@H](C)C(=O)N2CCCCC2)NC(=O)[C@H](CC(C)C)N(C)C(=O)[C@H](C)N(C)C(=O)[C@H](CC(C)C)N(C)C1=O [DP-299] ([NMeβAla]T[NMeF][NMeL][NMeF]I[NMeL][NMeA][NMeL]D[NMeF]A-Piperidide; lactam N-10)	5.3	56	–	–
CC[C@H](C)[C@H](NC(=O)[C@H](CC(C)C)NC(=O)[C@@H]1CCCN1C(=O)[C@H](CC(C)C)NC(=O)[C@H](CC(C)C)N(C)C(=O)[C@@H]1CC(=O)N[C@@H](Cc2ccccc2)C(=O)N[C@@H](CC(C)C)C(=O)N(C)[C@@H](CC(C)C)C(=O)N[C@@H]([C@@H](C)O)C(=O)N(C)[C@@H](Cc2cccc(Cl)c2)C(=O)N(C)[C@@H](C)C(=O)N(C)[C@@H](CC(C)C)C(=O)N1)C(=O)N1CCCCC1 [DP-925] (FL[NMeL]T[NMePhe(3-Cl)][NMeA][NMeL]D[NMeL]LPLI-Piperidide; lactam N-8)	–	–	0.1	2
CC[C@H](C)[C@H]1C(=O)N(C)[C@@H](CC(C)C)C(=O)N[C@H](C(=O)N2CCCCC2)CC(=O)N(C)CC(=O)N[C@@H](CC(C)C)C(=O)N[C@@H]([C@@H](C)O)C(=O)N(C)CC(=O)N(CC)[C@@H](Cc2ccccc2)C(=O)N[C@@H](C)C(=O)N(C)[C@@H](Cc2ccccc2)C(=O)N(C)[C@@H](CC(C)C)C(=O)N1C [DP-546] ([Sar]LT[Sar][NEtPhe]A[NMeF][NMeL][NMeI][NMeL]D-Piperidide; lactam N-11)	–	–	41	34
CC[C@H](C)[C@@H]1NC(=O)[C@H](C)N(C)C(=O)[C@H](CC(C)C)N(C)C(=O)[C@H](Cc2ccccc2)NC(=O)[C@H]([C@@H](C)O)NC(=O)[C@H](C(C)C)N(C)C(=O)[C@H](C)N(C)C(=O)CN(C)C(=O)[C@@H](C(C)C)NC(=O)C[C@@H](C(=O)N(C)C(Cc2ccccc2)C(=O)N(C)[C@@H](Cc2ccccc2)C(=O)N[C@@H](C)C(=O)N2CCCCC2)NC1=O (stereo partly drawn) [DP-293] ([dV][Sar][NMeA][NMeV]TF[NMeL][NMeA]ID[ξNMeF][NMeF]A-Piperidide; lactam N-10)	45	29	–	–
CC(C)C[C@H]1C(=O)N(C)[C@@H](CC(C)C)C(=O)N[C@@H](C)CC(=O)N(C)CCCC(=O)N(C)[C@@H](Cc2ccccc2)C(=O)N[C@@H]([C@@H](C)O)C(=O)N(C)CC(=O)N[C@@H](COC(C)(C)C)C(=O)N1C [DP-795] (cyclo([NMeF]T[Sar]S(tBu)[NMeL][NMeL][β3hA][NMeGABA]))	–	–	19	143
CC(C)C[C@H]1C(=O)N[C@@H](C)CC(=O)N(C)[C@H](C)C(=O)N(C)[C@@H](Cc2ccccc2)C(=O)N(C)[C@@H](CC(C)C)C(=O)N[C@@H]([C@@H](C)O)C(=O)N(C)CC(=O)N[C@@H](COC(C)(C)C)C(=O)N1C [DP-797] (cyclo([NMeF][NMeL]T[Sar]S(tBu)[NMeL][β3hA][dNMeA]))	–	–	26	91
CC(C)C[C@@H]1NC(=O)CN(C)C(=O)[C@H](CC(C)C)N(C)C(=O)[C@H]([C@@H](C)O)NC(=O)[C@H](CC(C)C)N(C)C(=O)[C@H](Cc2ccccc2)N(C)C(=O)[C@H](C(C)C)NC(=O)C[C@@H](C(=O)N2CCCCC2)NC1=O [DP-691] (V[NMeF][NMeL]T[NMeL][Sar]LD-Piperidide; lactam N-8)	–	–	33	326
CC(C)C[C@@H]1NC(=O)[C@H](CC(C)C)N(C)C(=O)[C@H](C)NC(=O)[C@H](C)N(C)C(=O)[C@H]([C@@H](C)O)NC(=O)CN(C)C(=O)[C@H](C(C)C)N(C)C(=O)[C@H](CC(C)C)N(C)C(=O)[C@H](Cc2ccccc2)NC(=O)CN(C)C(=O)C[C@@H](C(=O)N2CCCCC2)NC1=O [DP-167] ([Sar]F[NMeL][NMeV][Sar]T[NMeA]A[NMeL]LD-Piperidide; lactam N-11)	–	–	9.5	75
CC(C)C[C@@H]1NC(=O)[C@H](C)NC(=O)C[C@H](C)NC(=O)[C@H](C(C)C)N(C)C(=O)[C@H](Cc2ccc(C(F)(F)F)cc2)NC(=O)[C@H](CC(C)C)N(C)C(=O)[C@H]([C@@H](C)O)NC(=O)[C@H](Cc2ccc(C(F)(F)F)cc2)NC(=O)[C@H](C)N(C)C(=O)CNC(=O)[C@H](CC(C)C)N(C)C(=O)[C@H](C)N(C)C1=O [DP-814] (cyclo(AL[NMeA][NMeL]G[NMeA][Phe(4-CF3)]T[NMeL][Phe(4-CF3)][NMeV][β3hA]))	–	–	57	22
CC[C@H](C)[C@H]1C(=O)N[C@@H](CC(C)C)C(=O)N(C)[C@@H](CC(C)C)C(=O)N[C@H](C(=O)N2CCCCC2)CC(=O)N(C)CC(=O)N(C)[C@@H](CC(C)C)C(=O)N[C@@H]([C@@H](C)O)C(=O)N(C)[C@@H](C)C(=O)N[C@@H](C)C(=O)N(C)[C@@H](Cc2ccccc2)C(=O)N(C)[C@@H](Cc2ccccc2)C(=O)N1C [DP-247] ([Sar][NMeL]T[NMeA]A[NMeF][NMeF][NMeI]L[NMeL]D-Piperidide; lactam N-11)	–	–	28	48
CC(C)C[C@H]1C(=O)N[C@@H](COC(C)(C)C)C(=O)N[C@H](C(=O)N2CCCCC2)CC(=O)N(C)[C@@H](C)C(=O)N(C)[C@@H](Cc2ccccc2)C(=O)N(C)[C@@H](CC(C)C)C(=O)N[C@@H]([C@@H](C)O)C(=O)N(C)[C@@H](C)C(=O)N1C [DP-707] ([NMeA][NMeF][NMeL]T[NMeA][NMeL]S(tBu)D-Piperidide; lactam N-8)	–	–	29	84
CC(C)C[C@@H]1NC(=O)[C@H](CC(C)C)N(C)C(=O)[C@H](Cc2ccccc2)N(C)C(=O)[C@H]([C@@H](C)O)NC(=O)[C@H](CC(C)C)N(C)C(=O)CN(C)C(=O)CCCN(C)C(=O)C[C@@H](C(=O)N2CCCCC2)NC1=O [DP-713] ([NMeGABA][Sar][NMeL]T[NMeF][NMeL]LD-Piperidide; lactam N-8)	–	–	27	169
CC(C)C[C@@H]1NC(=O)[C@H](CO)N(C)C(=O)[C@H](CC(C)C)N(C)C(=O)[C@H](CC(C)C)N(C)C(=O)[C@H](CC(C)C)N(C)C(=O)C[C@H](C)NC(=O)[C@H](C)NC(=O)[C@H](CC(C)C)N(C)C(=O)[C@H](CC(C)C)NC(=O)[C@H](CC(C)C)N(C)C(=O)CN(C)C1=O [DP-644] (cyclo(A[β3hA][NMeL][NMeL][NMeL][NMeS]L[Sar][NMeL]L[NMeL]))	–	–	33	80
CC[C@H](C)[C@@H]1NC(=O)[C@H](CC(C)C)N(C)C(=O)CCCN(C)C(=O)C[C@@H](C(=O)N2CCCCC2)NC(=O)[C@H](CC(C)C)N(C)C(=O)[C@H](C)N(C)C(=O)[C@H]([C@@H](C)O)NC(=O)[C@H](CC(C)C)N(C)C(=O)[C@H](COC(C)(C)C)NC(=O)[C@H](Cc2ccccc2)N(C)C(=O)[C@H](Cc2ccccc2)N(C)C1=O [DP-114] ([NMeGABA][NMeL]I[NMeF][NMeF]S(tBu)[NMeL]T[NMeA][NMeL]D-Piperidide; lactam N-11)	44	56	–	–
CCCCCC[C@@H]1NC(=O)[C@H](CC(C)C)N(C)C(=O)CN(C)C(=O)[C@H](CC(C)C)NC(=O)C[C@H](C)NC(=O)[C@H](CC(C)C)N(C)C(=O)[C@H](CC(C)C)N(C)C(=O)[C@H](CC(C)C)N(C)C(=O)[C@@H](C)NC(=O)[C@H](CO)NC(=O)[C@H](CC(C)C)N(C)C1=O [DP-647] (cyclo([Aoc(2)][NMeL]S[dA][NMeL][NMeL][NMeL][β3hA]L[Sar][NMeL]))	–	–	29	132
CC(C)C[C@H]1C(=O)N[C@H](C(=O)N2CCCCC2)CC(=O)N(C)CC(=O)N[C@@H]([C@@H](C)O)C(=O)N(C)[C@@H](C)C(=O)N[C@@H](COC(C)(C)C)C(=O)N(C)[C@@H](Cc2ccccc2)C(=O)N1C [DP-531] ([Sar]T[NMeA]S(tBu)[NMeF][NMeL]D-Piperidide; lactam N-7)	–	–	5.8	42
CC[C@H](C)[C@@H]1NC(=O)[C@H](Cc2ccccc2)N(C)C(=O)[C@@H]2CCCN2C(=O)[C@H]([C@@H](C)O)NC(=O)[C@H](CC(C)C)NC(=O)[C@H](C)N(C)C(=O)CCCN(C)C(=O)C[C@@H](C(=O)N2CCCCC2)NC(=O)[C@H](CC(C)C)NC(=O)[C@H](CC(C)C)N(C)C(=O)CNC(=O)[C@H](Cc2ccccc2)N(C)C1=O [DP-109] ([NMeGABA][NMeA]LTP[NMeF]I[NMeF]G[NMeL]LD-Piperidide; lactam N-12)	–	–	30	36
CC[C@H](C)[C@H]1C(=O)N[C@@H](C)C(=O)N(C)[C@@H](CC(C)C)C(=O)N[C@@H](COC(C)(C)C)C(=O)N(C)[C@@H](CC(C)C)C(=O)N[C@H](C(=O)N2CCCCC2)CC(=O)N(C)CCC(=O)N[C@@H](Cc2ccccc2)C(=O)N(C)[C@@H](Cc2ccccc2)C(=O)N(C)[C@@H](CC(C)C)C(=O)N[C@@H]([C@@H](C)O)C(=O)N(C)[C@@H](C)C(=O)N1C [DP-92] ([NMeβAla]F[NMeF][NMeL]T[NMeA][NMeI]A[NMeL]S(tBu)[NMeL]D-Piperidide; lactam N-12)	–	–	26	29
